Data from patent US10421750B2, “Substituted morpholine derivatives having activity against pain” (ESTEVE PHARMACEUTICALS, S.A., priority 2015, dated 2019).

Target: human σ1 receptor (Homo sapiens (Human), UniProt Q99720)
Test: Human σ1 receptor radioligand assay ([3H](+)-pentazocine, transfected HEK-293 membranes)
Details: binding to the σ1 receptor expressed as Ki, [3H](+)-pentazocine 5 nM
Protocol: Human σ1 Receptor Radioligand Assay
To investigate binding properties of test compounds to human σ1 receptor, transfected HEK-293 membranes and [^3H](+)-pentazocine (Perkin Elmer, NET-1056), as the radioligand, were used. The assay was carried out with 7 μg of membrane suspension, 5 nM of [^3H](+)-pentazocine in either absence or presence of either buffer or 10 μM Haloperidol for total and non-specific binding, respectively. Binding buffer contained Tris-HCl 50 mM at pH 8. Plates were incubated at 37° C. for 120 minutes. After the incubation period, the reaction mix was then transferred to MultiScreen HTS, FC plates (Millipore), filtered and plates were washed 3 times with ice-cold 10 mM Tris-HCL (pH7.4). Filters were dried and counted at approximately 40% efficiency in a MicroBeta scintillation counter (Perkin-Elmer) using EcoScint liquid scintillation cocktail

Chain of human σ1 receptor (Q99720 whole entry): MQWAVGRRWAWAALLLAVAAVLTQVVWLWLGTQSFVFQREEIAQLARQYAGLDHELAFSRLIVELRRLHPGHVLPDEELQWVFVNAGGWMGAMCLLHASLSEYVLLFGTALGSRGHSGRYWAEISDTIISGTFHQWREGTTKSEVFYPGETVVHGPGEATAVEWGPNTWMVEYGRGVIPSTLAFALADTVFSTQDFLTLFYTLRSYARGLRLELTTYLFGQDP

Question: Which Ki does the source give for CCN1C[C@@H](C2CCN(Cc3ccccc3)CC2)O[C@H](C)C1=O [Example 25, (2R,6R)-6-(1-benzylpiperidin-4-yl)-4-ethyl-2-methylmorpholin-3-one] here?
Answer: ≥ 500 nM

Question: CCN1CC(C2CCN(Cc3ccc(C#N)cc3)CC2)OC2(CC2)C1=O (stereo not shown) [Example 36, 4-((4-(7-ethyl-8-oxo-4-oxa-7-azaspiro[2.5]octan-5-yl)piperidin-1-yl)methyl)benzonitrile] was tested. Which Ki did it give?
Answer: ≥ 500 nM

Question: CCN1C[C@@H](C2CCN(Cc3ccc(C#N)cc3)CC2)O[C@@H](C)C1=O [Example 31, 4-((4-((2R,6S)-4-ethyl-6-methyl-5-oxomorpholin-2-yl)piperidin-1-yl)methyl)benzonitrile] was tested. Which Ki did it give?
Answer: ≥ 500 nM

Question: How did the Ki turn out when CCN1CC(C2CCN(CCc3ccccc3)CC2)OC2(CC2)C1=O (stereo not shown) [Example 7, 7-Ethyl-5-(1-phenethylpiperidin-4-yl)-4-oxa-7-azaspiro[2.5]octan-8-one] was run?
Answer: < 500 nM

Question: With CCN1CC(C2CN(CCC(C)C)C2)OC2(CC2)C1=O (stereo not shown) [Example 22, 7-ethyl-5-(1-isopentylazetidin-3-yl)-4-oxa-7-azaspiro[2.5]octan-8-one] as the compound, how does the Ki read?
Answer: < 500 nM

Question: How did the Ki turn out when CC(C)N1CC(C2CCN(Cc3ccccc3)CC2)OC2(CC2)C1=O (stereo not shown) [Example 37, 5-(1-benzylpiperidin-4-yl)-7-isopropyl-4-oxa-7-azaspiro[2.5]octan-8-one] was run?
Answer: ≥ 500 nM

Question: How did the Ki turn out when CC(C)N1CC(C2CCN(CCc3ccccc3)CC2)OC2(CC2)C1=O (stereo not shown) [Example 8, 7-isopropyl-5-(1-phenethylpiperidin-4-yl)-4-oxa-7-azaspiro[2.5]octan-8-one] was run?
Answer: < 500 nM

Question: CCN1CC(C2CCN(CCc3ccccc3)CC2)OC2(CC2)C1 (stereo not shown) [Example 11, 7-Ethyl-5-(1-phenethylpiperidin-4-yl)-4-oxa-7-azaspiro[2.5]octane] was tested. Which Ki did it give?
Answer: < 500 nM

Question: For CC(C)CCN1CCC(C2CN(C(=O)c3ccccc3)CC3(CC3)O2)CC1 (stereo not shown) [Example 51, (5-(1-Isopentylpiperidin-4-yl)-4-oxa-7-azaspiro[2.5]octan-7-yl)(phenyl)methanone], which Ki is on record?
Answer: < 100 nM

Question: How did the Ki turn out when CCN1C[C@@H](C2CCN(Cc3ccc(F)cc3)CC2)O[C@H](C)C1=O [Example 29, (2R,6R)-4-ethyl-6-(1-(4-fluorobenzyl)piperidin-4-yl)-2-methylmorpholin-3-one] was run?
Answer: ≥ 500 nM

Question: How did the Ki turn out when COc1ccc(CN2CC(C3CCN(CC(C)C)CC3)OC3(CC3)C2)cc1 (stereo not shown) [Example 46, 5-(1-isobutylpiperidin-4-yl)-7-(4-methoxybenzyl)-4-oxa-7-azaspiro[2.5]octane] was run?
Answer: < 500 nM

Question: For O=C(c1ccccc1)N1CC(C2CCN(Cc3ccccc3)CC2)OC2(CC2)C1 (stereo not shown) [Example 4, (5-(1-benzylpiperidin-4-yl)-4-oxa-7-azaspiro[2.5]octan-7-yl)(phenyl)methanone], which Ki is on record?
Answer: < 100 nM

Question: For COc1ccc(CN2CC(C3CCN(CCC(C)C)CC3)OC3(CC3)C2)cc1 (stereo not shown) [Example 47, 5-(1-isopentylpiperidin-4-yl)-7-(4-methoxybenzyl)-4-oxa-7-azaspiro[2.5]octane], which Ki is on record?
Answer: < 100 nM

Question: For CCN1CC(C2CCN(Cc3ccccc3)CC2)OC2(CC2)C1 (stereo not shown) [Example 14, 5-(1-benzylpiperidin-4-yl)-7-ethyl-4-oxa-7-asazaspiro[2.5]octane], which Ki is on record?
Answer: < 100 nM

Question: Which Ki does the source give for COc1ccc(CN2CC(C3CCN(CC(C)C)CC3)OC3(CC3)C2=O)cc1 (stereo not shown) [Example 15, 5-(1-isobutylpiperidin-4-yl)-7-(4-methoxybenzyl)-4-oxa-7-azaspiro[2.5]octan-8-one] here?
Answer: ≥ 500 nM

Question: For CCN1C[C@@H](C2CCN(Cc3ccc(C#N)cc3)CC2)O[C@H](C)C1=O [Example 33, 4-((4-((2R,6R)-4-ethyl-6-methyl-5-oxomorpholin-2-yl)piperidin-1-yl)methyl)benzonitrile], which Ki is on record?
Answer: ≥ 500 nM

Question: With CCN1C[C@H](C2CCN(Cc3ccccc3)CC2)O[C@H](C)C1=O [Example 26, (2R,6S)-6-(1-benzylpiperidin-4-yl)-4-ethyl-2-methylmorpholin-3-one] as the compound, how does the Ki read?
Answer: ≥ 500 nM

Question: With COc1ccc(CN2CC(C3CCN(Cc4ccccc4)CC3)OCC2=O)cc1 (stereo not shown) [Example 21, 6-(1-benzylpiperidin-4-yl)-4-(4-methoxybenzyl)morpholin-3-one] as the compound, how does the Ki read?
Answer: < 500 nM

Question: With COc1ccc(CN2CC(C3CCN(CCc4ccccc4)CC3)OC3(CC3)C2=O)cc1 (stereo not shown) [Example 1, 7-(4-Methoxybenzyl)-5-(1-phenethylpiperidin-4-yl)4-oxa-7-azaspiro[2.5]octan-8-one] as the compound, how does the Ki read?
Answer: ≥ 500 nM

Question: With O=C(c1ccccc1)N1CC(C2CCN(CCc3ccccc3)CC2)OC2(CC2)C1 (stereo not shown) [Example 2, (5-(1-phenethylpiperidin-4-yl)-4-oxa-7-azaspiro[2.5]octan-7-yl)(phenyl)methanone] as the compound, how does the Ki read?
Answer: < 500 nM

Question: How did the Ki turn out when CCN1CC(C2CCN(Cc3ccccc3)CC2)OCC1=O (stereo not shown) [Example 41, 6-(1-benzylpiperidin-4-yl)-4-ethylmorpholin-3-one] was run?
Answer: < 100 nM

Question: Which Ki does the source give for CCN1C[C@@H](C2CCN(Cc3ccc(F)cc3)CC2)O[C@@H](C)C1=O [Example 27, (2S,6R)-4-ethyl-6-(1-(4-fluorobenzyl)piperidin-4-yl)-2-methylmorpholin-3-one] here?
Answer: ≥ 500 nM

Question: For COc1ccc(CN2CC(C3CCN(CCC(C)C)CC3)OC3(CC3)C2=O)cc1 (stereo not shown) [Example 16, 5-(1-isopentylpiperidin-4-yl)-7-(4-methoxybenzyl)-4-oxa-7-azaspiro[2.5]octan-8-one], which Ki is on record?
Answer: < 500 nM

Question: Which Ki does the source give for CCN1CC(C2CN(Cc3ccccc3)C2)OC2(CC2)C1=O (stereo not shown) [Example 42, 5-(1-benzylazetidin-3-yl)-7-ethyl-4-oxa-7-azaspiro[2.5]octan-8-one] here?
Answer: < 500 nM

Question: COc1ccc(CN2CC(C3CCN(CCc4ccccc4)CC3)OC3(CC3)C2)cc1 (stereo not shown) [Example 13, 7-(4-methoxybenzyl)-5-(1-phenethylpiperidin-4-yl)-4-oxa-7-azaspiro[2.5]octane] was tested. Which Ki did it give?
Answer: ≥ 500 nM

Question: With CCN1CC(C2CCN(Cc3ccccc3)CC2)OC2(CC2)C1=O (stereo not shown) [Example 5, 5-(1-benzylpiperidin-4-yl)-7-ethyl-4-oxa-7-azaspiro[2.5]octan-8-one] as the compound, how does the Ki read?
Answer: < 100 nM

Question: For CCN1C[C@H](C2CCN(Cc3ccc(F)cc3)CC2)O[C@H](C)C1=O [Example 30, (2R,6S)-4-ethyl-6-(1-(4-fluorobenzyl)piperidin-4-yl)-2-methylmorpholin-3-one], which Ki is on record?
Answer: ≥ 500 nM

Question: For O=C1N(c2ccccc2)CC(C2CCN(Cc3ccccc3)CC2)OC12CC2 (stereo not shown) [Example 10, 5-(1-benzylpiperidin-4-yl)-7-phenyl-4-oxa-7-azaspiro[2.5]octan-8-one], which Ki is on record?
Answer: < 500 nM

Question: With CCN1C[C@H](C2CCN(Cc3ccc(C#N)cc3)CC2)O[C@H](C)C1=O [Example 34, 4-((4-((2S,6R)-4-ethyl-6-methyl-5-oxomorpholin-2-yl)piperidin-1-yl)methyl)benzonitrile] as the compound, how does the Ki read?
Answer: ≥ 500 nM

Question: How did the Ki turn out when O=C1N(c2ccccc2)CC(C2CN(Cc3ccccc3)C2)OC12CC2 (stereo not shown) [Example 45, 5-(1-benzylazetidin-3-yl)-7-phenyl-4-oxa-7-azaspiro[2.5]octan-8-one] was run?
Answer: < 100 nM

Question: For CCN1CC(C2CN(CCc3ccccc3)C2)OC2(CC2)C1=O (stereo not shown) [Example 43, 7-ethyl-5-(1-phenethylazetidin-3-yl)-4-oxa-7-azaspiro[2.5]octan-8-one], which Ki is on record?
Answer: < 500 nM

Question: How did the Ki turn out when CCN1CC(C2CCN(Cc3ccc(F)cc3)CC2)OC2(CC2)C1=O (stereo not shown) [Example 35, 7-ethyl-5-(1-(4-fluorobenzyl)piperidin-4-yl)-4-oxa-7-azaspiro[2.5]octan-8-one] was run?
Answer: ≥ 500 nM

Question: With COc1ccc(CN2CC(C3CCN(Cc4ccccc4)CC3)OC3(CC3)C2=O)cc1 (stereo not shown) [Example 3, 5-(1-Benzylpiperidin-4-yl)-7-(4-methoxybenzyl)-4-oxa-7-azaspiro[2.5]octan-8-one] as the compound, how does the Ki read?
Answer: < 500 nM

Question: How did the Ki turn out when CC(C)N1CC(C2CCN(Cc3ccc(F)cc3)CC2)OC2(CC2)C1=O (stereo not shown) [Example 38, 5-(1-(4-fluorobenzyl)piperidin-4-yl)-7-isopropyl-4-oxa-7-azaspiro[2.5]octan-8-one] was run?
Answer: ≥ 500 nM

Question: For COc1ccc(CN2CC(C3CCN(Cc4ccccc4)CC3)OC3(CC3)C2)cc1 (stereo not shown) [Example 12, 5-(1-benzylpiperidin-4-yl)-7-(4-methoxybenzyl)-4-oxa-7-azaspiro[2.5]octane], which Ki is on record?
Answer: < 100 nM

Question: For O=C1N(c2ccccc2)CC(C2CCN(CCc3ccccc3)CC2)OC12CC2 (stereo not shown) [Example 9, 5-(1-Phenethylpiperidin-4-yl)-7-phenyl-4-oxa-7-azaspiro[2.5]octan-8-one], which Ki is on record?
Answer: ≥ 500 nM

Question: Which Ki does the source give for CC(C)N1CC(C2CCN(Cc3ccc(C#N)cc3)CC2)OC2(CC2)C1=O (stereo not shown) [Example 39, 4-((4-(7-isopropyl-8-oxo-4-oxa-7-azaspiro[2.5]octan-5-yl)piperidin-1-yl)methyl)benzonitrile] here?
Answer: ≥ 500 nM

Question: CCN1C[C@H](C2CCN(Cc3ccc(F)cc3)CC2)O[C@@H](C)C1=O [Example 28, (2S,6S)-4-ethyl-6-(1-(4-fluorobenzyl)piperidin-4-yl)-2-methylmorpholin-3-one] was tested. Which Ki did it give?
Answer: ≥ 500 nM

Question: How did the Ki turn out when CC(C)CCN1CCC(C2CN(c3ccccc3)C(=O)C3(CC3)O2)CC1 (stereo not shown) [Example 44, 5-(1-isopentylpiperidin-4-yl)-7-phenyl-4-oxa-7-azaspiro[2.5]octan-8-one] was run?
Answer: < 500 nM

Question: How did the Ki turn out when CCN1CCOC(C2CCN(Cc3ccccc3)CC2)C1 (stereo not shown) [Example 50, 2-(1-benzylpiperidin-4-yl)-4-ethylmorpholine] was run?
Answer: < 100 nM

Question: For CCN1C[C@H](C2CCN(Cc3ccc(C#N)cc3)CC2)O[C@@H](C)C1=O [Example 32, 4-((4-((2S,6S)-4-ethyl-6-methyl-5-oxomorpholin-2-yl)piperidin-1-yl)methyl)benzonitrile], which Ki is on record?
Answer: ≥ 500 nM

Question: With CCN1CCC(C2CN(Cc3ccc(OC)cc3)C(=O)C3(CC3)O2)CC1 (stereo not shown) [Example 6, 5-(1-ethylpiperidin-4-yl)-7-(4-methoxybenzyl)-4-oxa-7-azaspiro[2.5]octan-8-one] as the compound, how does the Ki read?
Answer: ≥ 500 nM

Question: With CCN1CC(C2CCN(CCC(C)C)CC2)OC2(CC2)C1=O (stereo not shown) [Example 40, 7-ethyl-5-(1-isopentylpiperidin-4-yl)-4-oxa-7-azaspiro[2.5]octan-8-one] as the compound, how does the Ki read?
Answer: < 500 nM
